In brackets after ≈: the same amount, converted by molar mass.
What was measured:
[1] = test system: A549 (lung cancer cells); assay: Inhibition of growth of tumor cells (SRB assay), A549; assay type: cell-based; details: 0.01-100 μg/mL, cultured 48 hours
Description: (§1) Cells were cultured in Dulbecco's modified Eagle's medium (hereunder referred to as DMEM) containing 5-10% fetal bovine serum and L-glutamine in an incubator of 37° C. and 5% CO2. Adherent cells were suspended using a trypsin-EDTA solution and isolated and collected for testing.
(§2) The cells were cultured on a 96-well plate, 5×10^3-10^4 cells each. After treating with the extract and the active ingredient at a concentration of 0, 0.01, 0.1, 1, 10 and 100 μg/mL, the cells were cultured for 48 hours. After culturing for […], the culture medium was removed from each well and 200 μL of 10% TCA (trichloroacetic acid) was added. The cells were fixed to the bottom of the plate by letting alone at 4° C. for 1 hour. After fixation, the plate was washed with distilled water for 5-6 times to remove the remaining TCA solution and then completely dried. To the plate was added 200 μL of a staining solution per each well, which was prepared by dissolving 0.4% SRB solution in 1% acetic acid solution. After 30 minutes' staining, the plate was washed with 1% acetic acid solution for 5-6 times to remove excess SRB. The plate was dried at room temperature and 200 μL of 10 mM trisma base solution (unbuffered) was added per each well. After 10 minutes' of shaking using a titer plate shaker to elute out the staining solution, light absorbance was measured at 540 nm using a microplate reader.

[2] = test system: HCT15 (colon cancer cells); assay: Inhibition of growth of tumor cells (SRB assay), HCT15; assay type: cell-based; details: cultured 48 hours; for Inhibitory effect against growth of cancer cells IC50 HCT15: 0.01-100 μg/mL
Description: as §1, §2

[3] = test system: MCF7 (breast cancer cells); assay: Inhibition of growth of tumor cells (SRB assay), MCF7; assay type: cell-based; details: 0.01-100 μg/mL, cultured 48 hours
Description: as §1, §2

[4] = test system: SK-OV-3 (cancer cells); assay: Inhibition of growth of tumor cells (SRB assay), SK-OV-3; assay type: cell-based; details: Homo sapiens, SK-OV-3 cells, 0.01-100 μg/mL, cultured 48 hours, read-out: Inhibitory effect against growth of cancer cells IC50 SK-OV-3
Description: as §1, §2

[5] = test system: MDA-MB-231 (breast cancer cells); assay: Inhibition of growth of tumor cells (SRB assay), MDA-MB-231; assay type: cell-based; details: MDA-MB-231 cells, 0.01-100 μg/mL, cultured 48 hours
Description: as §1, §2

[6] = test system: HeLa (uterine cancer cells); assay: Inhibition of growth of tumor cells (SRB assay), HeLa; assay type: cell-based; details: 0.01-100 μg/mL, cultured 48 hours
Description: as §1, §2

[7] = test system: SK-OV-3 (uterine cancer cells); assay: Inhibition of growth of tumor cells (SRB assay), SK-OV-3; assay type: cell-based; details: SK-OV-3 cells, 0.01-100 μg/mL, cultured 48 hours
Description: as §1, §2

[8] = test system: mice; assay: Toxicity test, intraperitoneal injection to mice; assay type: in vivo; details: for Mice died: intraperitoneal, 20 mg/kg, 10 mice per group, observed 7 days; for Cause of the death of the mice: right after the intraperitoneal injection
Description: (§3) Toxicity test was performed as follows for the Androsace umbellata Merr. extract, fraction thereof and saxifragifolins B and D of the present invention.
(§4) Each of the Androsace umbellata Merr. extract, fraction thereof and saxifragifolins D and B was dissolved in 1% sodium carboxymethlycellulose and diluted with water. The solution was intraperitoneally injected to mice (10 per each group) at a dose of 0, 0.016, 0.8, 4, 20 and 100 mg/kg. […] No mouse died in the Androsace umbellata Merr. extract group. All the 10 mice of the 100 mg/kg Androsace umbellata Merr. fraction group died right after the administration and two died in the 20 mg/kg group. 3 mice died in each of the 20 mg/kg saxifragifolin B and saxifragifolin D groups. No more mice died until the 7th day. […] When the Androsace umbellata Merr. extract, fraction thereof and saxifragifolins D and B were dissolved in corn oil and orally administered at a dose of 1, 10 and 100 mg/kg, no mice died for 7 days.

[9] = test system: mice; assay: Toxicity test, oral administration to mice; assay type: in vivo; details: orally, in corn oil, 1, 10 and 100 mg/kg, 7 days
Description: as §3, §4

IC50 ([1]; Homo sapiens, read-out: Inhibitory effect against growth of cancer cells IC50 A549) [µg/mL] | IC50 ([2]; Homo sapiens, HCT-15, 0.01-100 μg/mL, read-out: Inhibitory effect against growth of cancer cells IC50 HCT15) [µg/mL] | IC50 ([3]; Homo sapiens, read-out: Inhibitory effect against growth of cancer cells IC50 MCF7) [µg/mL] | IC50 [4] [µg/mL] | IC50 ([5]; Homo sapiens, read-out: Inhibitory effect against growth of cancer cells IC50 MDA-MB-231) [µg/mL] | IC50 ([6]; Homo sapiens, read-out: Inhibitory effect against growth of cancer cells IC50 HeLa) [µg/mL] | Molecule | Inhibitory effect against growth of cancer cells IC50 A549 [1] [µg/mL] | Inhibitory effect against growth of cancer cells IC50 HCT15 [2] [µg/mL] | Inhibitory effect against growth of cancer cells IC50 MCF7 [3] [µg/mL] | Inhibitory effect against growth of cancer cells IC50 SK-OV-3 [7] [µg/mL] | Inhibitory effect against growth of cancer cells IC50 MDA-MB-231 [5] [µg/mL] | Inhibitory effect against growth of cancer cells IC50 HeLa [6] [µg/mL] | Mice died [8] [mice] | Cause of the death of the mice [8] | Mice died [9]
0.011 ± 0.01 (≈ 0.0202 µM) | 0.014 ± 0.02 (≈ 0.0258 µM) | 0.5 ± 0.02 (≈ 0.92 µM) | 0.77 ± 0.03 (≈ 1.42 µM) | 0.02 ± 0.01 (≈ 0.0368 µM) | 0.21 ± 0.01 (≈ 0.386 µM) | COc1cccc2c1C(=O)c1c(O)c3c(c(O)c1C2=O)C[C@@](O)(C(=O)CO)C[C@@H]3O[C@H]1C[C@H](N)[C@H](O)[C@H](C)O1 [Doxorubicin, reference compound] |  |  |  |  |  |  |  |  | 
 |  |  |  |  |  | cyclamiretin A 3-O-{β-D-glucopyranosyl-(1→4)-β-D-glucopyranosyl-(1→2)-β-D-xylopyranosyl-(1→2)-β-D-glucopyranosyl-(1→4)-α-L-arabinopyranoside} [Saxifragifolin D] | 0.016 ± 0.01 | 0.558 ± 0.24 | 3.23 ± 0.10 | 6.36 ± 0.12 | 1.32 ± 0.03 | 0.98 ± 0.05 | 3 | hemolysis of red blood cells | no mice died
 |  |  |  |  |  | cyclamiretin A 3-O-{β-D-xylopyranosyl-(1→2)-β-D-glucopyranosyl-(1→4)-β-D-glucopyranosyl-(1→2)-α-L-arabinopyranoside} [Saxifragifolin B] | 0.036 ± 0.02 | 0.183 ± 0.17 | 6.88 ± 0.13 | 8.39 ± 0.23 | 3.02 ± 0.02 | 1.22 ± 0.04 | 3 | hemolysis of red blood cells | no mice died
